Reference: patent US11191766B2, “Methods of treating pediatric cancers” (Loxo Oncology, Inc., priority 2016, dated 2021)
Counter-ions that a name gives are not always drawn.

Key:
[1] = Accelerated stability study in an LDPE bag at 40° C./75% RH for five weeks; type: physicochemical
[2] = Hygroscopicity: dynamic vapor sorption (DVS) / exposure to humidity; type: physicochemical; details: for hygroscopicity: non-hygroscopic = less than a 2% weight gain at 25° C. and 80% RH after 24 to 48 hours
Protocol: For the DVS measurement a sample of crystalline form (I-HS) was cycled through changing humidity conditions to determine its hygroscopicity. The sample was analyzed using a Surface Measurement System DVS-1 Dynamic Vapor Sorption System. […] Data was collected in 1 minute intervals. Nitrogen was used as the carrier gas. […] After completion of the sorption cycle, the sample was dried using the same procedure, but all the way down to 0% RH and finally taken back to the starting point of 20% RH. The weight change during the sorption/desorption cycles were plotted, allowing for the hygroscopic nature of the sample to be determined.
The crystalline form (I-HS), as noted previously, is non-hygroscopic. […] Given this tendency, use of the AM(HS) compound would require significant handling precautions during storage and manufacture to prevent this change in form from occurring whereas the crystalline form (I-HS) requires no such precautions during manufacture of the API.

[3] = system: Infantile Fibrosarcoma with NTRK3-ETV6 Fusion; experiment: Phase 1 pediatric study of oral liquid formulation, case of infantile fibrosarcoma (MR imaging response); type: in vivo, human
[4] = first two cycles; fever and influenza A considered not related
[5] = Flow properties (Carr's and Hausner Index); type: physicochemical
Source text: The differences in flow properties can make the development of a solid oral dosage form more difficult for the amorphous API vs. the crystalline API.

Compound	chemical impurity levels over the course of the study [1]	hygroscopicity [2]	response on repeat scans ([3]; end of Cycle 2, size reduction confirmed, continued decrease in enhancement)	interval reduction in the size and enhancement of the mass from baseline (MR of the brain and neck) ([3]; end of cycle 1 (day 28), BID, patient)	clinical observation noted by the parents ([3]; throughout cycle 1)	adverse events related to compound [4]	flow properties compared with amorphous API [5]	change in crystalline form during DVS (XRPD post vs pre DVS) [2]	hysteresis between sorption and desorption cycles ([2]; DVS)	increase in mass during the sorption cycle ([2]; between 0% and 90% RH)
O=C(Nc1cnn2ccc(N3CCC[C@@H]3c3cc(F)ccc3F)nc12)N1CC[C@H](O)C1.O=S(=O)(O)O [AM(HS), (S)—N-(5-((R)-2-(2,5-difluorophenyl)pyrrolidin-1-yl)-pyrazolo[1,5-a]pyrimidin-3-yl)-3-hydroxypyrrolidine-1-carboxamide hydrogen sulfate]	neither the AM(HS) or crystalline form (I-HS) exhibited a significant changes in chemical impurity levels	deliquesce upon exposure to humidity	–	–	–	–	–	–	–	–
O=C(Nc1cnn2ccc(N3CCC[C@@H]3c3cc(F)ccc3F)nc12)N1CC[C@H](O)C1 [Compound I-HS, (S)—N-(5-((R)-2-(2,5-difluorophenyl)pyrrolidin-1-yl)-pyrazolo[1,5-a]pyrimidin-3-yl)-3-hydroxypyrrolidine-1-carboxamide hydrogen sulfate]	–	–	partial response	more than 90%	improved engagement and playfulness	no adverse events related to Compound I-HS	–	–	–	–
O=C(Nc1cnn2ccc(N3CCC[C@@H]3c3cc(F)ccc3F)nc12)N1CC[C@H](O)C1 [crystalline form (I-HS), (S)—N-(5-((R)-2-(2,5-difluorophenyl)pyrrolidin-1-yl)-pyrazolo[1,5-a]pyrimidin-3-yl)-3-hydroxypyrrolidine-1-carboxamide hydrogen sulfate]	neither the AM(HS) or crystalline form (I-HS) exhibited a significant changes in chemical impurity levels	non-hygroscopic	–	–	–	–	better flow properties	no change	very small hysteresis	about 1.7%
